# Data taken from the supplement of paper PMC11368000.
# What was measured:
# Conditions in all cases: exposure time: 90 min
# 1368 = donor line of iPSC-derived cardiomyocytes; experiment: POD (EC05) for increase in Ca2+ transient decay-to-rise ratio (QT prolongation) vs vehicle; higher = less potent (higher point of departure)
# Description: (§1)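 Human iPSC-derived cardiomyocytes from 16 donors were exposed for 90 min at 37 °C to each PFAS at 0.1, 1, 10 and 100 µM in 0.5% DMSO, 384-well plates. Kinetic Ca2+ flux (FLIPR) and Hoechst nuclei counts were normalised to vehicle wells and fitted with a hierarchical Bayesian Hill model to give donor-specific PODs: EC05 for beat-rate increase or decrease and for decay-to-rise ratio increase (QT proxy), EC95 for peak-frequency loss (asystole), EC10 for total cell number loss. 0.03 µM is the lower bound.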
# 30171 [1] = donor line of iPSC-derived cardiomyocytes; experiment: as above
# Description: as §1
# 20084 = donor line of iPSC-derived cardiomyocytes; experiment: as above
# Description: as §1
# 1309 = donor line of iPSC-derived cardiomyocytes; experiment: as above
# Description: as §1
# 1392 [2] = donor line of iPSC-derived cardiomyocytes; experiment: as above
# Description: as §1
# 11235 [3] = donor line of iPSC-derived cardiomyocytes; experiment: as above
# Description: as §1
# 30145 = donor line of iPSC-derived cardiomyocytes; experiment: as above
# Description: as §1
# 1118 = donor line of iPSC-derived cardiomyocytes; experiment: as above
# Description: as §1
# 1434 [4] = donor line of iPSC-derived cardiomyocytes; experiment: as above
# Description: as §1
# 1565 [5] = donor line of iPSC-derived cardiomyocytes; experiment: as above
# Description: as §1
# 1535 [6] = donor line of iPSC-derived cardiomyocytes; experiment: as above
# Description: as §1
# 1083 = donor line of iPSC-derived cardiomyocytes; experiment: as above
# Description: as §1
# 30171 [7] = experiment: POD (EC05) for increase in beat frequency (positive chronotrope) vs vehicle; higher = less potent (higher point of departure)
# Procedure, shortened: (§2)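 A FLIPR Tetra recorded Ca2+ flux in dye-loaded human iPSC-derived cardiomyocytes from 16 donors before and after 90 min at 37 °C with 0.1, 1, 10 and 100 µM (final concentrations, 0.5% DMSO). Vehicle-normalised beat frequency, decay-to-rise ratio or peak frequency were fitted with hierarchical Bayesian Hill models to give donor-specific points of departure. The threshold was a 5% change, or for peak frequency a 95% loss.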
# 1392 [8] = experiment: as above
# Procedure, shortened: as §2
# 11235 [9] = experiment: as above
# Procedure, shortened: as §2
# 1434 [10] = experiment: as above
# Procedure, shortened: as §2
# 1565 [11] = experiment: as above
# Procedure, shortened: as §2
# 1518 = donor line of iPSC-derived cardiomyocytes; experiment: as above
# Procedure, shortened: as §2
# 1535 [12] = experiment: as above
# Procedure, shortened: as §2
# 20032 = donor line of iPSC-derived cardiomyocytes; experiment: POD (EC05) for increase in Ca2+ transient decay-to-rise ratio (QT prolongation) vs vehicle; higher = less potent (higher point of departure)
# Description: as §1
SMILES,POD vs vehicle 1368 [µM],POD vs vehicle 30171 [1] [µM],POD vs vehicle 20084 [µM],POD vs vehicle 1309 [µM],POD vs vehicle 1392 [2] [µM],POD vs vehicle 11235 [3] [µM],POD vs vehicle 30145 [µM],POD vs vehicle 1118 [µM],POD vs vehicle 1434 [4] [µM],POD vs vehicle 1565 [5] [µM],POD vs vehicle 1535 [6] [µM],POD vs vehicle 1083 [µM],POD vs vehicle 30171 [7] [µM],POD vs vehicle 1392 [8] [µM],POD vs vehicle 11235 [9] [µM],POD vs vehicle 1434 [10] [µM],POD vs vehicle 1565 [11] [µM],POD vs vehicle 1518 [µM],POD vs vehicle 1535 [12] [µM],POD vs vehicle 20032 [µM]
NC(=O)C(F)(F)C(F)(F)C(F)(F)F [Heptafluorobutyramide],> 100,> 100,> 100,> 100,> 100,> 100,> 100,> 100,> 100,> 100,> 100,> 100,> 100,> 100,> 100,> 100,> 100,> 100,> 100,–
"OCC(F)(F)C(F)(F)C(F)(F)C(F)F [1H,1H,5H-Perfluoropentanol]",> 100,> 100,5.77,> 100,> 100,> 100,> 100,> 100,> 100,> 100,> 100,> 100,> 100,> 100,> 100,> 100,> 100,> 100,> 100,> 100
O=C(O)C=CC(F)(C(F)(F)F)C(F)(F)F [3-(Perfluoroisopropyl)-2-propenoic_acid],> 100,> 100,> 100,> 100,> 100,> 100,> 100,> 100,> 100,> 100,> 100,> 100,> 100,> 100,> 100,> 100,> 100,> 100,> 100,> 100
O=C([O-])C(F)(F)C(F)(F)C(F)(F)C(F)(F)C(F)(F)C(F)(F)C(F)(F)F.[NH4+] [Ammonium_perfluorooctanoate],> 100,> 100,> 100,> 100,> 100,> 100,> 100,> 100,> 100,> 100,> 100,> 100,> 100,> 100,> 100,> 100,> 100,> 100,> 100,> 100
O=C(O)C(F)(F)C(F)(F)C(F)(F)C(F)(F)C(F)(F)C(F)(F)C(F)(F)C(F)(F)Cl [9-Chloro-perfluorononanoic_acid],> 100,> 100,> 100,> 100,> 100,> 100,> 100,> 100,> 100,> 100,> 100,> 100,> 100,> 100,> 100,> 100,> 100,> 100,> 100,> 100
"O=C(O)CCC(F)(F)C(F)(F)C(F)(F)C(F)(F)C(F)(F)F [2H,2H,3H,3H-Perfluorooctanoic_acid]",> 100,> 100,> 100,> 100,> 100,> 100,> 100,> 100,> 100,> 100,> 100,> 100,> 100,> 100,> 100,> 100,> 100,> 100,> 100,48.4
"O=C(O)C(F)(F)OC(F)(F)C(F)(F)OC(F)(F)C(F)(F)OC(F)(F)C(F)(F)C(F)(F)C(F)(F)F [Perfluoro-3,6,9-trioxatridecanoic_acid]",> 100,> 100,> 100,> 100,> 100,> 100,> 100,> 100,> 100,> 100,> 100,> 100,> 100,> 100,> 100,> 100,> 100,> 100,> 100,> 100
O=C(O)C(F)(F)C(F)(F)C(F)(F)C(F)(F)C(F)(F)C(F)(F)F [Perfluoroheptanoic_acid],> 100,> 100,> 100,> 100,> 100,> 100,> 100,> 100,> 100,> 100,> 100,> 100,> 100,> 100,> 100,> 100,> 100,> 100,> 100,> 100
O=C(O)C(F)(F)C(F)(F)C(F)(F)C(F)(F)C(F)(F)C(F)(F)C(F)(F)F [Perfluorooctanoic_acid],> 100,> 100,> 100,> 100,> 100,> 100,> 100,> 100,> 100,> 100,> 100,> 100,> 100,> 100,> 100,> 100,> 100,> 100,> 100,> 100
"O=C(CC(=O)C(F)(F)C(F)(F)F)C(F)(F)F [3H,3H-Perfluoro-2,4-hexanedione]",> 100,> 100,> 100,> 100,> 100,> 100,> 100,> 100,> 100,> 100,> 100,> 100,> 100,> 100,> 100,> 100,> 100,> 100,> 100,> 100
O=S(=O)(O)C(F)(F)C(F)(F)C(F)(F)C(F)(F)F [Perfluorobutanesulfonic_acid],> 100,> 100,> 100,> 100,> 100,> 100,> 100,> 100,> 100,> 100,> 100,> 100,> 100,> 100,> 100,> 100,> 100,> 100,> 100,> 100
"O=C(O)C=C(C(F)(F)F)C(F)(F)F [3,3-Bis(trifluoromethyl)-2-propenoic_acid]",> 100,> 100,> 100,> 100,> 100,> 100,> 100,> 100,> 100,> 100,> 100,> 100,> 100,> 100,> 100,> 100,> 100,> 100,> 100,> 100
NS(=O)(=O)C(F)(F)C(F)(F)C(F)(F)C(F)(F)C(F)(F)C(F)(F)F [Perfluorohexanesulfonamide],> 100,> 100,> 100,> 100,> 100,> 100,> 100,> 100,> 100,> 100,16.8,30.8,> 100,> 100,> 100,> 100,> 100,> 100,> 100,> 100
NC(=O)C(F)(F)C(F)(F)C(F)(F)C(F)(F)C(F)(F)C(F)(F)C(F)(F)F [Perfluorooctanamide],> 100,> 100,–,> 100,> 100,> 100,> 100,> 100,> 100,> 100,> 100,> 100,> 100,> 100,> 100,> 100,> 100,> 100,> 100,–
NC(=O)C(F)(F)C(F)(F)C(F)(F)C(F)(F)F [Nonafluoropentanamide],> 100,> 100,> 100,> 100,> 100,> 100,> 100,> 100,0.357,> 100,> 100,> 100,> 100,> 100,> 100,> 100,> 100,> 100,> 100,0.52
OCC(F)(F)OC(F)(F)C(F)(F)OC(F)(F)C(F)(F)OC(F)(F)F [Fluorinated_triethylene_glycol_monomethyl_ether],> 100,> 100,> 100,> 100,> 100,> 100,> 100,> 100,> 100,> 100,> 100,> 100,–,> 100,> 100,> 100,> 100,–,> 100,> 100
"OCC(O)CC(F)(F)C(F)(F)C(F)(F)C(F)(F)C(F)(F)C(F)(F)C(F)(F)C(F)(F)F (configuration not stated) [1-(Perfluorofluorooctyl)propane-2,3-diol]",> 100,> 100,> 100,> 100,> 100,> 100,> 100,> 100,> 100,> 100,> 100,> 100,0.136,> 100,0.231,0.19,> 100,> 100,> 100,> 100
CN(CCO)S(=O)(=O)C(F)(F)C(F)(F)C(F)(F)C(F)(F)C(F)(F)C(F)(F)C(F)(F)C(F)(F)F [N-Methyl-N-(2-hydroxyethyl)perfluorooctanesulfonamide],> 100,> 100,> 100,> 100,> 100,> 100,> 100,> 100,> 100,> 100,> 100,> 100,> 100,> 100,–,–,> 100,> 100,> 100,> 100
N=C(N)C(F)(F)C(F)(F)C(F)(F)C(F)(F)C(F)(F)C(F)(F)C(F)(F)F [Perfluorooctanamidine],> 100,> 100,0.145,> 100,> 100,> 100,> 100,> 100,> 100,> 100,> 100,> 100,> 100,> 100,> 100,> 100,> 100,> 100,> 100,–
